The source of these data is PubChem BioAssay AID1645848.

As usually defined, the solubility (kinetic) is the concentration staying in solution when a stock, usually in DMSO, is diluted into the medium.

In brackets after ≈: the same amount, converted by molar mass.

The conditions of this series: buffer; pH 7.4; 6.0 h; 150.0 µM.
With `CCCNC(=O)c1ccc2c(c1)ncn2-c1cc(C)cc(C)c1`, the kinetic solubility is < 1 µg/mL.

In the case of `CN1CCN(c2cc(-c3nc(Nc4ccc(F)c(F)c4)c4ccccc4n3)ccn2)CC1`, the kinetic solubility was < 1 µg/mL. As for `Nc1nc2c(s1)C(c1ccc(Br)cc1)CC(=O)N2` (stereo unspecified), the figure is 6.66 µg/mL (≈ 20.6 µM); as for `CSc1nn(Cc2cccc(C)c2)c(N)c1S(=O)(=O)c1ccccc1`, < 1 µg/mL. As for `Cc1ccc(S(=O)(=O)Nc2cnccc2C(=O)Nc2nc(-c3ccc(Cl)c(Cl)c3)cs2)cc1`, the figure is 0.578 µg/mL (≈ 1.11 µM); as for `COc1ccccc1CN1CCNc2cc(Nc3ccccc3)ncc2C1`, > 80 µg/mL; as for `Nc1cc(-c2nc(Nc3ccc(F)c(F)c3)c3ccccc3n2)ccn1`, < 1 µg/mL. As for `CC(C)(O)/C=C\C(=O)[C@](C)(O)[C@H]1[C@H](O)C[C@]2(C)[C@@H]3CC=C4[C@@H](C=C(O)C(=O)C4(C)C)[C@]3(C)C(=O)C[C@@]12C`, the figure is > 51 µg/mL; as for `Nc1ncc(S(=O)(=O)N2CCN(c3ccccc3)CC2)cn1`, 1.13 µg/mL (≈ 3.53 µM); as for `O=C(Nc1nc(-c2ccccc2)cs1)c1ccncc1NS(=O)(=O)c1cccc2cccnc12`, 39.8 µg/mL (≈ 81.6 µM). `Cc1ccc(-n2c(C)cc(C3=NNC(=NC4CC4)SC3)c2C)cc1C`: the solubility (kinetic) worked out at 2.55 µg/mL (≈ 7.23 µM). As for `Cc1cccc2oc(NC3=NC(c4[nH]ncc4Cl)C4=C(CCCC4=O)N3)nc12` (stereo unspecified), the figure is < 1 µg/mL; as for `Cc1ccccc1CN1C2=NCCN2C(=O)C2=C1CCN(Cc1ccccc1)C2`, 26.7 µg/mL (≈ 69 µM). As for `CCC(C)N(C)C(=O)c1cc2ccccc2c(-c2ccccc2Cl)n1` (stereo unspecified), the figure is 38.6 µg/mL (≈ 109 µM). As for `O=C(Nc1nc(-c2ccccc2)cs1)c1ccncc1NS(=O)(=O)c1ccc(N2CCCC2=O)cc1`, the figure is 56.9 µg/mL (≈ 110 µM); as for `CCc1ccc(C2N=C(N)Nc3nc4ccccc4n32)cc1` (stereo unspecified), 6.87 µg/mL (≈ 23.6 µM); as for `Cc1ccc(S(=O)(=O)Nc2cnccc2C(=O)Nc2nc(-c3ccc(C)c(C)c3)cs2)cc1`, < 1 µg/mL. As to `CCc1cccc(NS(=O)(=O)c2ccc3c(c2)CC(C)N3C(=O)C2CC2)c1` (stereo unspecified), the kinetic solubility is < 1 µg/mL. As for `Cc1ccc(-n2ncc3c(NCCCN(C)C)ncnc32)cc1Cl`, the figure is > 51 µg/mL; as for `Cc1nc2sccn2c(=O)c1S(=O)(=O)Nc1ccc(N2CCN(S(C)(=O)=O)CC2)cc1`, 6.85 µg/mL (≈ 14.2 µM); as for `C=Cc1ccc(Cn2c(C(=O)O)c(CNC3CCCCC3)c3ccc(OC)cc32)cc1`, < 1 µg/mL. As for `COc1ccc(-c2ccc(C(=O)NC3CC(c4cc(=O)[nH]c(N)n4)C3)o2)cc1` (stereo unspecified), the figure is 30.4 µg/mL (≈ 79.9 µM); as for `O=C(NC1CC1)c1ccc(CSCc2ccccc2Cl)o1`, > 47 µg/mL. As for `Clc1ccccc1-c1nccc(-n2ccnc2)n1`, the figure is 7.3 µg/mL (≈ 28.4 µM). Regarding `COC(=O)Nc1nc2ccc(Sc3ccccc3)cc2[nH]1`, the solubility (kinetic) was < 1 µg/mL.

For the molecule `Fc1cc(Nc2nc(-c3ccncc3)nc3ccccc23)ccc1OCC(F)(F)F`, the solubility (kinetic) is < 1 µg/mL. As for `CCOC(=O)c1[nH]c(C)c(CCC(=O)N2CCN(c3cccc(C)c3C)CC2)c1C`, the figure is < 1 µg/mL; as for `Cc1ccc(S(=O)(=O)Nc2ccc(F)cc2C(=O)Nc2nc(-c3ccccc3)cs2)cc1`, < 1 µg/mL; as for `Cc1cc(NS(=O)(=O)c2ccc3c(c2)CCC(=O)N3)ccc1F`, > 49 µg/mL. Regarding `COC(=O)CNC(=O)c1nc(-c2ccccc2OC)c2ccccn12`, the kinetic solubility was > 60 µg/mL. As for `CSc1nnc2c3ccccc3n(CCc3ccccc3)c2n1`, the figure is < 1 µg/mL; as for `COc1cc2c(Oc3ccc(-c4cnc(Nc5ccc(F)cc5)n(C)c4=O)cc3F)ccnc2cc1OCCCN1CCOCC1`, < 1 µg/mL; as for `O=C(Nc1cccc(C(F)(F)F)c1)C1=CCN(Cc2ccc(F)cc2)CC1`, 26.2 µg/mL (≈ 69.2 µM). As for `Cc1ccnc(NC(=S)N2CCN(c3ccccc3C(F)(F)F)CC2)c1`, the figure is 8.07 µg/mL (≈ 21.2 µM). On to `CCN(CC)C(=O)c1coc(COc2ccc3c(c2)C(c2cccc(F)c2)N(C(=O)C(C)C)CC3)n1` (stereo unspecified), for which the kinetic solubility was < 1 µg/mL.

With `Cc1cc(SCc2sc(-c3ccc(C(F)(F)F)cc3)nc2C)ccc1OCC(=O)O`, the solubility (kinetic) is > 67 µg/mL. Take `C[C@@]12O[C@@H](C[C@]1(O)CO)n1c3ccccc3c3c4c(c5c6ccccc6n2c5c31)CNC4=O`: the kinetic solubility is 15.2 µg/mL (≈ 34.6 µM). Consider `COc1c(O)cc2c(c1OC)-c1ccc(SC)c(=O)cc1C(NC(C)=O)CC2` (stereo unspecified), for which the solubility (kinetic) was > 59 µg/mL. As for `COc1ccccc1N1CCN(c2ccc3cc(S(=O)(=O)N4CCCCC4)ccc3n2)CC1`, the figure is < 1 µg/mL.

Consider `Cc1cccc(C(=O)Nc2ccc(N3CCC(N4CCCCC4)CC3)c(C(=O)O)c2)c1`, for which the solubility (kinetic) is > 62 µg/mL. As for `COc1ccc(-c2cc(C)nc3c(-c4ccc(OC)c(OC)c4)c(C)nn23)cc1`, the figure is < 1 µg/mL; as for `Cc1ccc(S(=O)(=O)Nc2cnccc2C(=O)Nc2nc(-c3cc(Br)cs3)cs2)cc1`, 0.958 µg/mL (≈ 1.79 µM). As for `O=c1c2ccccc2nc(/C=C/c2cccnc2)n1Cc1ccccc1`, the figure is 1.8 µg/mL (≈ 5.29 µM); as for `Cc1ccnc(NC(=S)N2CCN(c3ccc(N)cc3)CC2)c1`, > 48 µg/mL; as for `COc1cccc(C(=O)Nc2ccc([S+](=O)([O-])Nc3nccs3)cc2)c1O`, 2.23 µg/mL (≈ 5.5 µM).

`CN1CCN(c2ccc(Nc3nn4c(=O)c5ccccc5nc4s3)cc2)CC1`: the kinetic solubility is > 58 µg/mL. As for `CCOc1ccc(CCNC(=O)c2cc3ccccc3n2CCN2CCOCC2)cc1OCC`, the figure is 47.5 µg/mL (≈ 102 µM). As for `CC(C)(C)c1ccc(-c2nc(SCCCOc3ccccc3)n3[nH]c(=O)cc3n2)cc1`, the figure is < 1 µg/mL. As for `Cn1nnnc1Sc1ncnc2scc(-c3ccccc3F)c12`, the figure is 1.2 µg/mL (≈ 3.48 µM); as for `C#CC1(O)CCC2C3CCC4=C/C(=N/OCC(=O)NCC(=O)NC(C(=O)O)C(C)C)CC[C@]4(C)C3CC[C@@]21C` (stereo partly specified), > 80 µg/mL; as for `COc1ccc(-n2nc(C)c([C@@H]3C=C[C@@H](NCc4cccc(Cl)c4)C3)c2C)cc1`, 46.2 µg/mL (≈ 113 µM).

The molecule `O=S(=O)(Nc1ccccc1)c1ccc(NCc2cccc(Cl)c2O)cc1` gave a solubility (kinetic) of 2.64 µg/mL (≈ 6.8 µM). Against the preceding molecule, the solubility kinetic is about 18-fold lower.

In turn, `COC(=O)[C@]12CCC(C)(C)C[C@H]1[C@H]1C(=O)C=C3[C@@]4(C)C=C(C#N)C(=O)C(C)(C)[C@@H]4CC[C@@]3(C)[C@]1(C)CC2` had a solubility (kinetic) of 1.99 µg/mL (≈ 3.93 µM).

Consider `Nc1nc2c(s1)C(c1ccccc1OCc1ccccc1Cl)CC(=O)N2` (stereo unspecified), for which the kinetic solubility worked out at 2.06 µg/mL (≈ 5.34 µM). The solubility kinetic values of the last two molecules are within 1.5-fold of each other. As for `O=C(Nc1ncccc1O)c1ccc(S(=O)(=O)Nc2ccccc2)cc1`, the figure is > 55 µg/mL. As for `Cc1ccc2c(c1)N(S(=O)(=O)c1cc(-c3onc(C)c3C)ccc1C)CCO2`, the figure is < 1 µg/mL; as for `O=C1CCCc2cc(S(=O)(=O)Nc3cnccc3C(=O)Nc3nc(-c4ccccc4)cs3)ccc2N1`, 62.9 µg/mL (≈ 121 µM); as for `Cc1cc(-c2nnc3n2CCCCC3)c(C)n1-c1ccc(Cl)cc1`, 25.9 µg/mL (≈ 75.9 µM). Take `COc1cc(Cl)cn2c(-c3cccc(NC4CNC4)n3)cnc12`: the solubility (kinetic) was > 49 µg/mL. As for `O=C(NCCc1cnc[nH]1)c1ccc(-c2ncc3cnc(-c4cccc(F)c4)cn23)cc1`, the figure is 33.7 µg/mL (≈ 79.1 µM); as for `Cc1cc(/C=C2/C(=O)Nc3ccccc32)cc(C)c1O`, < 1 µg/mL. As for `O=S(=O)(Nc1cccc2cccnc12)c1ccc(NCc2ccc(Br)cc2O)cc1`, the figure is < 1 µg/mL; as for `Cc1nc(-c2ccco2)cc([C@H]2CN3CC[C@H]2C[C@@H]3CNC(=O)NC2CCCCC2)n1`, > 63 µg/mL. Take `c1ccc2c(Nc3ccn[nH]3)nc(-c3ccncc3)nc2c1`: the kinetic solubility was < 1 µg/mL. As for `Cc1ccc(S(=O)(=O)Nc2ccc(Br)cc2C(=O)Nc2nc(-c3ccccc3)cs2)cc1`, the figure is < 1 µg/mL.

`COc1ccc2c(c1)N(C[C@H](C)CN(C)C)c1ccccc1S2`: the kinetic solubility was > 48 µg/mL.

For the molecule `CC(C)(C)OC(=O)N1CCN(c2ccc(NCc3ccc(-c4ccc(C#N)cc4)o3)cc2)CC1`, the kinetic solubility worked out at 9.31 µg/mL (≈ 20.3 µM). As for `CCN(CCO)CCCOc1ccc2c(Nc3cc(CC(=O)Nc4cccc(F)c4)[nH]n3)ncnc2c1`, the figure is > 75 µg/mL.

As for `Cn1cc(S(=O)(=O)N2CCOCC2)cc1C(=O)Nc1ccc(Cl)c(C(F)(F)F)c1`, the kinetic solubility was < 1 µg/mL. As for `Cc1cnc(-c2ccccc2OC(C)C)nc1NCc1ccc(-n2ccnn2)cc1`, the figure is 41.4 µg/mL (≈ 103 µM); as for `COc1ccccc1N1CCN(CCN(C(=O)c2ccc(I)cc2)c2ccccn2)CC1`, 53.8 µg/mL (≈ 99.1 µM); as for `CCCN1CNc2c(c(=O)[nH]c(=S)n2Cc2ccc(OC)c(OC)c2)C1`, > 56 µg/mL.

In the case of `c1ccc2c(Nc3ccc4nc[nH]c4c3)nc(-c3ccncc3)nc2c1`, the solubility (kinetic) was < 1 µg/mL. As for `NC(=O)C1CCN(c2nc(-c3cccc(N)c3)cs2)CC1`, the figure is > 45 µg/mL. As for `CCOc1ccc(CCNC(=O)c2cc3ccccc3n2Cc2cccc(C)n2)cc1OCC`, the figure is < 1 µg/mL; as for `Cc1ncc2c(c1CNC(=O)Cn1cnc3ccccc3c1=O)CCNC2`, 28.1 µg/mL (≈ 77.2 µM); as for `COc1ccc(S(=O)(=O)Nc2cnccc2C(=O)Nc2nc(-c3ccccc3)cs2)cc1`, 54.1 µg/mL (≈ 116 µM).

Molecule `CN1CCN(Cc2ccc(NC(=O)Cc3ccc(Oc4cc(NC(=O)C5CC5)ncn4)cc3)cc2C(F)(F)F)CC1` came in with a solubility (kinetic) of 57.3 µg/mL (≈ 101 µM). As for `COc1ccc(-n2nc3c(N4CCCC(C(=O)NCCc5ccc(C)cc5)C4)nnc(C)c3c2C)cc1` (stereo unspecified), the figure is 4.04 µg/mL (≈ 8.1 µM); as for `CCOc1ccccc1C(=O)Nc1ccncc1C(=O)Nc1cccc(S(=O)(=O)C(F)(F)F)c1`, < 1 µg/mL; as for `CNc1nc(-c2ccc3c(N)n[nH]c3c2)cc(N2C[C@@H](C(=O)NC3CCCCC3)CC[C@H]2C)n1`, 15.2 µg/mL (≈ 32.9 µM). As for `CN(C)c1ccc(S(=O)(=O)N2CCCCC2)cc1NS(=O)(=O)c1ccc2ccccc2c1`, the figure is 2.05 µg/mL (≈ 4.33 µM); as for `O=C(O)c1ccnc(-c2cc(C(=O)NCCc3ccccc3)ccn2)c1`, > 51 µg/mL; as for `Nc1cccc(CNc2ccc(S(=O)(=O)Nc3nccs3)cc2)c1O`, 47.2 µg/mL (≈ 125 µM). `CC#CC(=O)N1CCC[C@H]1c1nc(-c2ccc(C(=O)Nc3ccccn3)cc2)c2c(N)nccn12`: the kinetic solubility is > 69 µg/mL.

On to `c1ccc2[nH]c(Nc3nc(-c4ccncc4)nc4ccccc34)nc2c1`, for which the solubility (kinetic) is < 1 µg/mL.
